In publication PMC11172460 (International Journal of Molecular Sciences, 2024):

What was measured:
[1] = Hydrolysis kinetics in rat liver homogenates; format: in vitro ADME
Protocol: Livers were obtained from male Wistar rats, which were sacrificed by decapitation, after a slight isoflurane anesthesia. The livers were immediately isolated, and, after washing with ice-cold saline solution, they were homogenized in 4 volumes (w/v) of Tris HCl (50 mM, pH 7.4, 4 °C) by using a Potter–Elvehjem apparatus. The supernatant obtained after centrifugation (2000× g for 10 min at 4 °C) was decanted off and stored at −80 °C before its use for kinetic studies.
(§1) Kinetic analysis of Fer-Ger was performed by its incubation at 37 °C in 3 mL of rat liver or brain homogenates at 30 µM (9.92 µg/mL) final concentration. At defined time intervals, 100 μL of homogenates were withdrawn and immediately treated by quenching them in EtOH (250 µL), then an internal standard (100 μM carbazole dissolved in EtOH, 50 µL) was added. The samples were centrifuged (13,500× g for 10 min), and the 300 μL aliquots were reduced to dryness under a nitrogen stream. […]
(§2) The Fer-Ger degradation in whole blood or homogenates was analyzed as exponential decay plots of its concentrations versus incubation time, and the related half-life values were obtained from the linear regression of the corresponding semi-logarithmic plots. The quality of the fits was evaluated by considering the correlation coefficients (r) and p values. […]
(§3) Fer-Ger and its hydrolysis product, Ger, were quantified by HPLC. […]

[2] = Hydrolysis kinetics in rat brain homogenates; format: in vitro ADME; settings: within 3 h, 37 °C, 30 µM
Protocol: Brains were obtained from male Wistar rats, which were sacrificed by decapitation after a slight isoflurane anesthesia. The brains were immediately separated and homogenized in 5 volumes (w/v) of Tris HCl (50 mM, pH 7.4, 4 °C) using an ultra-Turrax (IKA Werke GmbH & Co. KG, Staufen, Germany) with 3 × 15 s bursts. After centrifugation of the homogenate (3000× g for 15 min at 4 °C), the supernatant was isolated and stored at −80 °C until its use for in vitro kinetic studies. The Lowry procedure was adopted to quantify the total protein concentration in the brain homogenate, resulting in 7.4 ± 0.4 μg protein/μL.
as §1, with “added.” for “added. The samples were centrifuged (13,500× g for 10 min), and the 300 μL aliquots were reduced to dryness under a nitrogen stream.”
as §2, §3

[3] = test system: neuronal differentiated N2a cells; experiment: Time-course of uptake in neuronal differentiated N2a cells; format: cell-based, mouse
Protocol: N2a cells were seeded on T75 flasks and grown in Dulbecco’s Modified Eagle Medium (DMEM) containing Glutamax, supplemented with 100 μg/mL streptomycin, 100 IU/mL penicillin, and 10% fetal bovine serum (FBS) in a humidified 5% CO2 atmosphere at 37 °C. After two passages by trypsinization, cells were seeded at a density of 5 × 10^3 cells/well in 12-well plates with 2 mL of DMEM or at a density of 5 × 10^2 cells/well in 96-well plates with 0.2 mL of DMEM, depending on the study (see below). For neural differentiation, N2a cells were allowed to adhere and proliferate in wells for 4 days; then, after washing once with serum-free DMEM, differentiating medium composed of DMEM containing 1% HS and 20 μM all-trans-retinoic acid (atRA) was added in both the seeding conditions, up to 6 days of differentiation, after which the cells were used for the experiments.
The potential ability of Fer-Ger to enter the neuronal cells of the brain, where it may exert its neuroprotective effects, was evaluated in 9 days-neuronal differentiated N2a cells (5 × 10^3 cells/well in a 12-well plate) at its best non-toxic concentrations of 5 µM and 10 µM in MTT. For their optimal dissolution, 5 µM and 10 µM Fer-Ger solutions in DPBS containing 0.1% BSA were kept for 30 min at 37 °C before the uptake experiment. Each of the 12-well plates was rinsed once with 1 mL of DPBS, and then 1 mL of 5 µM and 10 µM Fer-Ger was added to the test wells, and the plate was incubated for pre-determined interval times (5, 15, 30, and 60 min) in a humidified 5% CO2 atmosphere at 37 °C. The incubation was stopped at each time by taking the incubation DPBS from each well and storing it in Eppendorf tubes. […] The final number of cells was evaluated on untreated wells following their trypsinization and counted using the Scepter^TM 2.0 automated cell counter (Merck Millipore, Milan, Italy). Each reported value represents the mean of four independent incubation experiments.

[4] = Hydrolysis kinetics in rat whole blood; format: in vitro ADME
Protocol: Kinetic analysis of Fer-Ger was performed by incubating the compound at 37 °C in heparinized whole blood obtained from healthy human volunteers or from male Wistar rats weighing 200–250 g. In particular, appropriate amounts of stock solution in DMSO were added to a volume of 3 mL of whole blood in order to obtain the final concentration of 30 µM (9.92 µg/mL). Samples (100 μL) were withdrawn at defined time intervals and immediately treated. Specifically, they were firstly added to ice-cold water (500 µL); then, sulfosalicylic acid (10%, 50 µL) and the internal standard (100 μM carbazole dissolved in a mixture of MeOH and H2O 50:50 v/v, 50 µL) were added; finally, 1 mL of H2O-saturated ethyl acetate was used twice as extraction solvent. The samples were centrifuged (13,500× g for 10 min) and the organic phase was evaporated under a nitrogen stream. The residue was re-suspended in a mixture of H2O and CH3CN (50:50 v/v, 150 µL) and centrifuged (16,000× g for 5 min). […] All the values were derived from the mean of three independent incubation experiments.
The Fer-Ger degradation in whole blood or homogenates was analyzed as exponential decay plots of its concentrations versus incubation time, and the related half-life values were obtained from the linear regression of the corresponding semi-logarithmic plots. The quality of the fits was evaluated by considering the correlation coefficients (r) and p values. The computer program GraphPad Prism 7 (GraphPad, San Diego, CA, USA) allowed to perform the calculations.
Fer-Ger and its hydrolysis product, Ger, were quantified by HPLC. The chromatographic apparatus consisted of a modular system (model LC-40D) pump and DAD detector (model SPD-M40, Shimadzu, Kyoto, Japan) and an injection valve with a 20 μL sample loop (model 7725; Rheodyne, IDEX, Torrance, CA, USA).

## COc1cc(/C=C/C(=O)OC/C=C(\C)CCC=C(C)C)ccc1O [Fer-Ger, Geranyl ferulate]
[1]
  time to complete hydrolysis: about 30 min
[1]; male, Wistar, liver homogenate, pH 7.4, 37 °C, 30 µM, pseudo-first-order kinetic
  half-life at 30 µM: 3.94 ± 0.33 min
[2]
  hydrolysis / stability: total absence of hydrolysis processes
[3]; 5 μM Fer-Ger in DPBS, within 60 min, 37 °C
  intracellular concentration (cellular uptake), saturation: 18.36 ± 2.52 ng/5 × 10^4 cells
[3]; 5 μM Fer-Ger in DPBS, within the first 5 min of incubation, 37 °C
  intracellular concentration (cellular uptake): 9.46 ± 0.98 ng/5 × 10^4 cells
[3]; 10 μM Fer-Ger in DPBS, within 60 min, 37 °C
  intracellular concentration (cellular uptake), steady state: 46.73 ± 2.25 ng/5 × 10^4 cells
[3]; 10 μM Fer-Ger in DPBS, within the first 5–15 min of incubation, 37 °C
  intracellular concentration (cellular uptake): 36.83 ± 1.65 ng/5 × 10^4 cells
[3]; N2a cells, 5 and 10 μM, up to 60 min
  hydrolysis by neuronal cells (Ger detection intra- and extracellular): not hydrolyzed by neuronal cells
[4]; male, Wistar, heparinized whole blood, rat whole blood, 37 °C, 30 µM, pseudo-first-order kinetic, read-out: half-life (t1/2) of hydrolysis
  half-life at 30 µM: 20.1 ± 0.75 min
[4]; rat whole blood
  time to almost complete degradation: ≤ 2 h
[4]; rat whole blood vs human whole blood
  hydrolysis rate relative to human whole blood: about 10 times faster
